Laboratory results published in ChEMBL document CHEMBL3885881, “DrugMatrix”.

Species: Rattus norvegicus
Assay: DrugMatrix - Regimen: Daily Repeat
Assay type: toxicity, organism-based, Sprague-Dawley
Parameters: regimen Daily Repeat, gender Male, age 6-8 weeks
Conditions: in vivo, po, 25 mg/kg, route oral GAVAGE, dose level High, […]; for ABSOLUTE BASOPHIL / ABSOLUTE EOSINOPHIL / ABSOLUTE LYMPHOCYTE / ABSOLUTE MONOCYTE / ABSOLUTE SEGMENTED NEUTROPHIL / BASOPHIL / EOSINOPHIL / ERYTHROCYTE COUNT / HEMATOCRIT / HEMOGLOBIN / LEUKOCYTE COUNT / LYMPHOCYTE / MEAN CORPUSCULAR HEMOGLOBIN / MEAN CORPUSCULAR HEMOGLOBIN CONCENTRATION / MEAN CORPUSCULAR VOLUME / MONOCYTE / NEUTROPHIL / NUCLEATED RED BLOOD CELLS / PLATELET COUNT: tissue Blood; for ALANINE AMINOTRANSFERASE / ALBUMIN / ALKALINE PHOSPHATASE / ASPARTATE AMINOTRANSFERASE / BLOOD UREA NITROGEN / CARBON DIOXIDE / CHLORIDE / CHOLESTEROL / CREATINE PHOSPHOKINASE / CREATININE / GLUCOSE / LACTATE DEHYDROGENASE / LIPASE / PHOSPHORUS / POTASSIUM / SODIUM / TOTAL BILIRUBIN / TOTAL PROTEIN / URIC ACID: tissue Plasma

For `Sc1ncnc2nc[nH]c12` [MERCAPTOPURINE ANHYDROUS], the “ABSOLUTE BASOPHIL” value (72 h, time 3 day) was 0 CELLS/uL, the “ABSOLUTE EOSINOPHIL” value (72 h, time 3 day) was 0 CELLS/uL and the “ABSOLUTE LYMPHOCYTE” value (72 h, time 3 day) was 6679.67 CELLS/uL. For the same compound, the “ABSOLUTE MONOCYTE” value (72 h, time 3 day) was 205.33 CELLS/uL, the “ABSOLUTE SEGMENTED NEUTROPHIL” value (72 h, time 3 day) was 481.67 CELLS/uL and the BASOPHIL (72 h, time 3 day) was 0%. For the same compound, the EOSINOPHIL (72 h, time 3 day) was 0%, the “ERYTHROCYTE COUNT” value (72 h, time 3 day) was 6.41 x10E6/uL and the HEMATOCRIT (72 h, time 3 day) was 40.73%. The HEMOGLOBIN (72 h, time 3 day) was 15.47 G/DL, the “LEUKOCYTE COUNT” value (72 h, time 3 day) was 7.37 x10E3/uL and the LYMPHOCYTE (72 h, time 3 day) was 91%. The “MEAN CORPUSCULAR HEMOGLOBIN” value (72 h, time 3 day) was 24.1 pg, the “MEAN CORPUSCULAR HEMOGLOBIN CONCENTRATION” value (72 h, time 3 day) was 38 G/DL and the “MEAN CORPUSCULAR VOLUME” value (72 h, time 3 day) was 63.4 fL. The MONOCYTE (72 h, time 3 day) was 2.67%, the NEUTROPHIL (72 h, time 3 day) was 6.33% and the “NUCLEATED RED BLOOD CELLS” value (72 h, time 3 day) was 0.33 /100WBC. For the same compound, the “PLATELET COUNT” value (72 h, time 3 day) was 972 x10E3/uL, the “ALANINE AMINOTRANSFERASE” value (72 h, time 3 day) was 61.67 u/L and the ALBUMIN (72 h, time 3 day) was 4.17 G/DL. For the same compound, the “ALKALINE PHOSPHATASE” value (72 h, time 3 day) was 420.33 u/L, the “ASPARTATE AMINOTRANSFERASE” value (72 h, time 3 day) was 105.67 u/L and the “BLOOD UREA NITROGEN” value (72 h, time 3 day) was 12 mg/dL. The “CARBON DIOXIDE” value (72 h, time 3 day) was 28 mmol/L, the CHLORIDE (72 h, time 3 day) was 99.33 MEQ/L and the CHOLESTEROL (72 h, time 3 day) was 77.33 mg/dL. For the same compound, the “CREATINE PHOSPHOKINASE” value (72 h, time 3 day) was 602.33 u/L, the CREATININE (72 h, time 3 day) was 0.16 mg/dL and the GLUCOSE (72 h, time 3 day) was 163 mg/dL. The “LACTATE DEHYDROGENASE” value (72 h, time 3 day) was 320 u/L, the LIPASE (72 h, time 3 day) was 13 u/L and the PHOSPHORUS (72 h, time 3 day) was 11.97 mg/dL. For the same compound, the POTASSIUM (72 h, time 3 day) was 6.85 MEQ/L, the SODIUM (72 h, time 3 day) was 141.03 MEQ/L and the “TOTAL BILIRUBIN” value (72 h, time 3 day) was 0.2 mg/dL. The “TOTAL PROTEIN” value (72 h, time 3 day) was 5.8 G/DL, the “URIC ACID” value (72 h, time 3 day) was 1.57 mg/dL and the “ABSOLUTE BASOPHIL” value (120 h, time 5 day) was 0 CELLS/uL. The “ABSOLUTE EOSINOPHIL” value (120 h, time 5 day) was 80.67 CELLS/uL, the “ABSOLUTE LYMPHOCYTE” value (120 h, time 5 day) was 12020.67 CELLS/uL and the “ABSOLUTE MONOCYTE” value (120 h, time 5 day) was 204.67 CELLS/uL. For the same compound, the “ABSOLUTE SEGMENTED NEUTROPHIL” value (120 h, time 5 day) was 927.33 CELLS/uL, the BASOPHIL (120 h, time 5 day) was 0% and the EOSINOPHIL (120 h, time 5 day) was 0.67%. For the same compound, the “ERYTHROCYTE COUNT” value (120 h, time 5 day) was 5.62 x10E6/uL, the HEMATOCRIT (120 h, time 5 day) was 34.93% and the HEMOGLOBIN (120 h, time 5 day) was 13.6 G/DL. For the same compound, the “LEUKOCYTE COUNT” value (120 h, time 5 day) was 13.23 x10E3/uL, the LYMPHOCYTE (120 h, time 5 day) was 91% and the “MEAN CORPUSCULAR HEMOGLOBIN” value (120 h, time 5 day) was 24.33 pg. The “MEAN CORPUSCULAR HEMOGLOBIN CONCENTRATION” value (120 h, time 5 day) was 39 G/DL, the “MEAN CORPUSCULAR VOLUME” value (120 h, time 5 day) was 62.3 fL and the MONOCYTE (120 h, time 5 day) was 1.33%. For the same compound, the NEUTROPHIL (120 h, time 5 day) was 7%, the “NUCLEATED RED BLOOD CELLS” value (120 h, time 5 day) was 0 /100WBC and the “PLATELET COUNT” value (120 h, time 5 day) was 1431.67 x10E3/uL. The “ALANINE AMINOTRANSFERASE” value (120 h, time 5 day) was 58 u/L, the ALBUMIN (120 h, time 5 day) was 4.4 G/DL and the “ALKALINE PHOSPHATASE” value (120 h, time 5 day) was 341 u/L. For the same compound, the “ASPARTATE AMINOTRANSFERASE” value (120 h, time 5 day) was 91.33 u/L, the “BLOOD UREA NITROGEN” value (120 h, time 5 day) was 10.67 mg/dL and the “CARBON DIOXIDE” value (120 h, time 5 day) was 25 mmol/L. The CHLORIDE (120 h, time 5 day) was 100.33 MEQ/L, the CHOLESTEROL (120 h, time 5 day) was 73 mg/dL and the “CREATINE PHOSPHOKINASE” value (120 h, time 5 day) was 601.67 u/L. For the same compound, the CREATININE (120 h, time 5 day) was 0.13 mg/dL, the GLUCOSE (120 h, time 5 day) was 164 mg/dL and the “LACTATE DEHYDROGENASE” value (120 h, time 5 day) was 169.67 u/L. It also gave an LIPASE (120 h, time 5 day) of 12.33 u/L, a PHOSPHORUS (120 h, time 5 day) of 11.07 mg/dL and a POTASSIUM (120 h, time 5 day) of 7.18 MEQ/L. The SODIUM (120 h, time 5 day) was 142.8 MEQ/L, the “TOTAL BILIRUBIN” value (120 h, time 5 day) was 0.17 mg/dL and the “TOTAL PROTEIN” value (120 h, time 5 day) was 6.07 G/DL. For the same compound, the “URIC ACID” value (120 h, time 5 day) was 1.5 mg/dL.
